Measured values: patent US3931262A, “Hydrophilic and difficultly volatile biocidal triorganotin compounds” (priority 1972, dated 1976)

Tests used:
Format in all cases: cell-based
[1] = test system: Salmonella cholerae-suis VBIB
[2] = test system: Trichoderma viride CEB 3334.2; assay: Microbiological test
Source text: (§1) In the test for microbiocidal activity the compounds listed hereinbelow yielded the values indicated in the following Table: No. Compound __________________________________________________________________________ 1 (n--C4 H9)3 Sn--S--CH2 --CH2 --COO.(CH 2 --CH2 --O--n H(n~9) 2 (C6 H5)3 Sn--S--(CH2)3 --SO3.Na CH3 .vertline. 3 --Sn--S--CH2 --CH2 --COO--(CH2 --CH2 --O)n.H(n ~9) .vertline. CH3 4 (n--C4 H9)3 Sn--S--CH2 --COO.H.N(CH2 CH2 OH)3 5 (n--C4 H9)3 Sn--S--(CH2)2 --COO.H.N(CH2 CH2 OH)3 6 (n--C4 H9)3 Sn--S--CH2 --CO.N(CH2 CH2 OH)2 __________________________________________________________________________

[3] = test system: Aspergillus niger ATCC 6275; assay: Microbiological test
Source text: as §1

[4] = test system: Escherichia coli RP 45410; assay: Microbiological test
Source text: as §1

[5] = test system: Penicillium funiculosum CEB 329631; assay: Microbiological test
Source text: as §1

[6] = test system: Poria vaporia CBS; assay: Microbiological test
Source text: as §1

[7] = test system: Arizona paracolon 7:1.7,8; assay: Microbiological test
Source text: as §1

[8] = test system: Coniphora cerebella CBS; assay: Microbiological test
Source text: as §1

[9] = test system: Staphylococcus aureus SG 511 M6; assay: Microbiological test
Source text: as §1

[10] = test system: Fusarium oxysporum CBS; assay: Microbiological test
Source text: as §1

[11] = test system: Corynebacterium diphteroides FUR; assay: Microbiological test
Source text: as §1

[12] = test system: Streptococcus faecalis NCTC 8619; assay: Microbiological test
Source text: as §1

[13] = test system: Alternaria tenuis CBS 10426; assay: Microbiological test
Source text: as §1

[14] = test system: Streptococcus agalactiae M100; assay: Microbiological test
Source text: as §1

[15] = test system: Sarcina ureae SMB 81; assay: Microbiological test
Source text: as §1

[16] = test system: Pullularia pullulans CBS 10767; assay: Microbiological test
Source text: as §1

[17] = test system: Pasteurella multocida K753; assay: Microbiological test
Source text: as §1

[18] = test system: Mycobacterium phlei CITM 61; assay: Microbiological test
Source text: as §1

[19] = test system: Polystictus versicolor EMPA61; assay: Microbiological test
Source text: as §1

[20] = test system: Chaetomium globosum CBS 14851; assay: Microbiological test
Source text: as §1

[21] = test system: Pseudomonas fluorescens NCTC 4755; assay: Microbiological test
Source text: as §1

[22] = test system: Paecilomyces varioti CBS; assay: Microbiological test
Source text: as §1

[23] = test system: Stachybotrys atra CBS 32465; assay: Microbiological test
Source text: as §1

[24] = test system: Escherichia coli NCTC 8195; assay: Microbiological test
Source text: as §1

[25] = test system: Lenzites abietina CBS; assay: Microbiological test
Source text: as §1

[26] = test system: Trichophyton gypseum CBS; assay: Microbiological test
Source text: as §1

[27] = test system: Staphylococcus aureus SG 511; assay: Microbiological test
Source text: as §1

[28] = test system: Penicillium expansum SMC 36; assay: Microbiological test
Source text: as §1

[29] = test system: Candida albicans CBS; assay: Microbiological test
Source text: as §1

[30] = test system: Salmonella pullorum VBIZ; assay: Microbiological test
Source text: as §1

[31] = test system: Bacillus subtilis NCTC 6460; assay: Microbiological test
Source text: as §1

[32] = test system: Aspergillus flavus CBS 12662; assay: Microbiological test
Source text: as §1

Row | Structure (SMILES) | Activity range [1] [ppm] | Activity range [2] [ppm] | Activity range [3] [ppm] | Activity range [4] [ppm] | Activity range [5] [ppm] | Activity range [6] [ppm] | Activity range [7] [ppm] | Activity range [8] [ppm] | Activity range [9] [ppm] | Activity range [10] [ppm] | Activity range [11] [ppm] | Activity range [12] [ppm] | Activity range [13] [ppm] | Activity range [14] [ppm] | Activity range [15] [ppm] | Activity range [16] [ppm] | Activity range [17] [ppm] | Activity range [18] [ppm] | Activity range [19] [ppm] | Activity range [20] [ppm] | also measured
1 | CCC[CH2][Sn]([CH2]CCC)([CH2]CCC)[S]CC(=O)[O-].OCC[NH+](CCO)CCO [Compound 4, triethylammonium S-tri-n-butyl tin-thioglycolate] | > 300 | 10 | 10 | 30 | 30 | 10 | > 300 | 10 | 30 | 10 | 30 | 30 | 10 | 30 | 30 | 10 | 30 | 30 | 100 | 10 | Activity range [21]: > 300 ppm; Activity range [22]: 10 ppm; Activity range [23]: 10 ppm; Activity range [24]: 30 ppm; Activity range [25]: 10 ppm; Activity range [26]: 10 ppm; Activity range [27]: 30 ppm; Activity range [28]: 10 ppm; Activity range [29]: 10 ppm; Activity range [30]: > 300 ppm; Activity range [31]: 30 ppm; Activity range [32]: 10 ppm
2 | CCC[CH2][Sn]([CH2]CCC)([CH2]CCC)[S]CCC(=O)[O-].OCC[NH+](CCO)CCO [Compound 5, triethanolammonium S-tri-n-butyl tin-β-mercaptopropionate] | > 300 | 10 | 10 | > 300 | 10 | 10 | > 300 | 10 | 30 | 10 | 10 | 100 | ≤ 3 | 30 | 30 | 10 | 30 | 10 | 30 | ≤ 3 | Activity range [21]: 30 ppm; Activity range [22]: ≤ 3 ppm; Activity range [23]: ≤ 3 ppm; Activity range [24]: > 300 ppm; Activity range [25]: 10 ppm; Activity range [26]: 10 ppm; Activity range [27]: 10 ppm; Activity range [28]: 10 ppm; Activity range [29]: 10 ppm; Activity range [30]: > 300 ppm; Activity range [31]: 10 ppm; Activity range [32]: 10 ppm
